Experiments:
red blood cells (RBC) [1] = test: Storage hemolysis: phosphate-conjugated carbohydrates and adenylates in the supernatant fraction of stored RBCs; type: cell-based; conditions: RBC-AS-3 stored at 4° C.; over storage duration; FIG. 6
Method: RBC Storage: To ensure sterility, all storage conditions were set up and subsequently sampled in a biosafety cabinet. The RBC-AS-3 suspension was carefully removed from the bag into 3 ml aliquots inside 15 ml conical tubes. Stock concentrations (formulated in house-made AS-3) of ^13C5-Ado or d7-S1P were diluted to final concentrations of 0.1, 1, 10, and 100 μM for Ado or 1, 5, and 10 μM for S1P. Also included was a storage condition consisting of 10 Ado+5 μM S1P. […] The tubes were gently mixed and placed at 4° C. for storage. On days 2, 8, 11, 15, 22, 29, and 43, the tubes were placed back in a biosafety cabinet and 300 μl were sampled. The tubes were placed back at 4° C., and the samples were centrifuged for 10 minutes at 1500 g, 4° C. Supernatants were separated from cells and frozen until analysis (1st analysis after day 22 sampling). LC-MS Metabolomics: Metabolomics analyses were performed as previously described (Nemkov et al. (2015) Amino Acids doi:10.1007/s00726-015-2019-9; Nemkov et al. (2017) Rapid Commun. Mass Spectrom. 31, 663-673). Briefly, samples were placed on ice and diluted with 9 volumes of methanol:acetonitrile:water (5:3:2, v:v) for RBC, or with 24 volumes of methanol:acetonitrile:water (5:3:2, v:v) for supernatants. […] Samples were analyzed in randomized order with a technical mixture injected after every 15 samples to qualify instrument performance. […]

red blood cells (RBC) [2] = test: RBC storage in AS-3 with Ado and/or S1P, LC-MS metabolomics of cells and supernatants; type: cell-based; conditions: for amount of hypoxanthine in RBC and supernatants / 2,3-DPG levels / ATP production / oxidized glutathione levels / reduced glutathione levels: RBC-AS-3 stored at 4° C.; for amount of hypoxanthine in RBC and supernatants: at least up to a concentration less than 100 μM, at which point Ado becomes a substrate for hypoxanthine production, FIG. 5; for 2,3-DPG levels: first two weeks of storage, FIG. 2; for ATP production: first week of storage, FIG. 3; for oxidized glutathione levels / reduced glutathione levels: supplemented conditions, FIG. 4; for glycolytic activity as measured by the lactate-to-glucose ratio: RBC-AS-3 suspension stored at 4° C., Ado 0.1-100 μM or S1P 1-10 μM or both, versus unsupplemented storage, FIG. 1
Method: RBC Storage: To ensure sterility, all storage conditions were set up and subsequently sampled in a biosafety cabinet. The RBC-AS-3 suspension was carefully removed from the bag into 3 ml aliquots inside 15 ml conical tubes. Stock concentrations (formulated in house-made AS-3) of ^13C5-Ado or d7-S1P were diluted to final concentrations of 0.1, 1, 10, and 100 μM for Ado or 1, 5, and 10 μM for S1P. Also included was a storage condition consisting of 10 Ado+5 μM S1P. […] The tubes were gently mixed and placed at 4° C. for storage. On days 2, 8, 11, 15, 22, 29, and 43, the tubes were placed back in a biosafety cabinet and 300 μl were sampled. The tubes were placed back at 4° C., and the samples were centrifuged for 10 minutes at 1500 g, 4° C. Supernatants were separated from cells and frozen until analysis (1st analysis after day 22 sampling). LC-MS Metabolomics: Metabolomics analyses were performed as previously described (Nemkov et al. (2015) Amino Acids doi:10.1007/s00726-015-2019-9; Nemkov et al. (2017) Rapid Commun. Mass Spectrom. 31, 663-673). Briefly, samples were placed on ice and diluted with 9 volumes of methanol:acetonitrile:water (5:3:2, v:v) for RBC, or with 24 volumes of methanol:acetonitrile:water (5:3:2, v:v) for supernatants. Suspensions were vortexed continuously for 30 min at 4° C. Insoluble material was removed by centrifugation at 18,000 g for 10 min at 4° C. and supernatants were isolated for metabolomics analysis by UHPLC-MS. The analytical platform employed a Vanquish UHPLC system (Thermo Fisher Scientific, San Jose, Calif., USA) coupled online to a Q Exactive mass spectrometer (Thermo Fisher Scientific, San Jose, Calif., USA). Samples were resolved over a Kinetex C18 column, 2.1×150 mm, 1.7 μm particle size (Phenomenex, Torrance, Calif., USA) equipped with a guard column (SecurityGuard™ Ultracartridge—UHPLC C18 for 2.1 mm ID Columns—AJO-8782—Phenomenex, Torrance, Calif., USA) using an aqueous phase (A) of water and 0.1% formic acid and a mobile phase (B) of acetonitrile and 0.1% formic acid for positive ion polarity mode, or an aqueous phase (A) of 5% acetonitrile and 1 mM ammonium acetate in water and a mobile phase (B) of 95% acetonitrile and 1 mM ammonium acetate in water for negative ion polarity mode. Samples were eluted from the column using a gradient from 5% to 95% B over 1.6 minutes, followed by an isocratic hold at 95% B for 1.65 minutes, flowed at 450 μl/min and 40° C. The Q Exactive mass spectrometer (Thermo Fisher Scientific, San Jose, Calif., USA) was operated independently in positive or negative ion mode, scanning in Full MS mode (2 μscans) from 60 to 900 m/z at 70,000 resolution, with 4 kV spray voltage, 15 shealth gas, 5 auxiliary gas. Calibration was performed prior to analysis using the Pierce™ Positive and Negative Ion Calibration Solutions (Thermo Fisher Scientific). Acquired data was then converted from .raw to .mzXML file format using Mass Matrix (Cleveland, Ohio, USA). Samples were analyzed in randomized order with a technical mixture injected after every 15 samples to qualify instrument performance. Metabolite assignments, isotopologue distributions, and correction for expected natural abundances of deuterium, ^13C, and ^15N isotopes were performed using MAVEN (Princeton, N.J., USA). The Q Exactive mass spectrometer (Thermo Fisher Scientific, San Jose, Calif., USA) was operated independently in positive or negative ion mode, scanning in Full MS mode (2 μscans) from 60 to 900 m/z at 70,000 resolution, with 4 kV spray voltage, 15 shealth gas, 5 auxiliary gas. Calibration was performed prior to analysis using the Pierce™ Positive and Negative Ion Calibration Solutions (Thermo Fisher Scientific). Acquired data was then converted from .raw to .mzXML file format using Mass Matrix (Cleveland, Ohio, USA). […] Importantly, the use of a standard processed blood unit is an improvement over previous experiments as this material directly represents a realistic storage strategy.

For Nc1ncnc2c1ncn2[C@@H]1O[C@H](CO)[C@@H](O)[C@H]1O [Ado, adenosine], the “levels of phosphate-conjugated carbohydrates and adenylates in supernatants (indicative of hemolysis)” value (red blood cells (RBC) [1]) was “significantly lower”, the “amount of hypoxanthine in RBC and supernatants” value (red blood cells (RBC) [2]) was “markedly decreased” and the “2,3-DPG levels” value (red blood cells (RBC) [2]) was “higher 2,3-DPG levels through the first two weeks of storage”. For the same molecule, the ATP production (red blood cells (RBC) [2]) was “improved ATP production through the first week of storage”, the oxidized glutathione levels (red blood cells (RBC) [2]) was “lower” and the reduced glutathione levels (red blood cells (RBC) [2]) was “increased”. For the same molecule, the “glycolytic activity as measured by the lactate-to-glucose ratio” value (red blood cells (RBC) [2]) was “higher glycolytic activity”.
In the case of CCCCCCCCCCCCC/C=C/[C@@H](O)[C@@H](N)COP(=O)(O)O [S1P, sphingosine 1-phosphate], the “levels of phosphate-conjugated carbohydrates and adenylates in supernatants (indicative of hemolysis)” value (red blood cells (RBC) [1]) was “significantly lower”, the “amount of hypoxanthine in RBC and supernatants” value (red blood cells (RBC) [2]) was “markedly decreased” and the “2,3-DPG levels” value (red blood cells (RBC) [2]) was “higher 2,3-DPG levels through the first two weeks of storage”. The ATP production (red blood cells (RBC) [2]) was “improved ATP production through the first week of storage”, the oxidized glutathione levels (red blood cells (RBC) [2]) was “lower” and the reduced glutathione levels (red blood cells (RBC) [2]) was “increased”. The “glycolytic activity as measured by the lactate-to-glucose ratio” value (red blood cells (RBC) [2]) was “higher glycolytic activity”.

Reference: patent US20210219542A1, “COMPOSITIONS AND METHODS FOR STORAGE OF RED BLOOD CELLS” (THE REGENTS OF THE UNIVERSITY OF COLORADO, A BODY CORPORATE, priority 2018, published 2021)
